These results are taken from PMC4656118 (Journal of biomolecular screening, 2014).

In one assay the test system is salmon sperm DNA. Put plainly: Counterscreen to detect DNA intercalators. The class given is binding. To be noted: for Competition with acridine orange for DNA intercalation (acridine orange mP values): assay validation, increasing concentration, monensin up to 1uM; for DNA intercalation (competition with acridine orange): pilot screen hits at increasing concentrations. Background: A counterscreen serves to expose hits that act by an unwanted route or on another target.

Assay [1] addresses N-LANA peptide binding to nucleosomes (histones H2A/H2B) (Gallus gallus, UniProt P02263+P0C1H3). Put plainly: biochemical. Also on record: species or system chicken. To be noted: for Scored positive for inhibition in HTS at ICCB-L/NSRB: 49,810 small molecules screened in duplicate, Z score; for Identified as hit in pilot screen (Z score < −2 for both replicates): pilot screen of known bioactives.

Assay [2] has as its target GST LANA1-23 binding to nucleosomes (Gallus gallus, UniProt P02263+P0C1H3). Briefly: ELISA, inhibition of GST LANA1-23 binding to nucleosomes. Also on record: species or system chicken. To be noted: increasing concentrations of competitor or compound. A general note: In an ELISA, binding on a coated surface is turned into a signal by an enzyme label.

As for `CC[N+](C)(CC)CCC[n+]1c(-c2ccccc2)c2cc(N)ccc2c2ccc(N)cc21.[I-].[I-]` [PI, propidium iodide], the “Competition with acridine orange for DNA intercalation (acridine orange mP values)” value (shortened to “Competition … (acridine orange mP values)”) with salmon sperm DNA is given as “reduced acridine orange mP values”.
On to `CC[C@@]1([C@@H]2O[C@@H]([C@H]3O[C@@](O)(CO)[C@H](C)C[C@@H]3C)C[C@@H]2C)CC[C@H]([C@]2(C)CC[C@]3(C[C@H](O)[C@@H](C)[C@@H]([C@@H](C)[C@@H](OC)[C@H](C)C(=O)O)O3)O2)O1` [Monensin, monensin], for which, in assay [1] (negative control for HTS), the “Inhibition of LANA 1-23 binding to nucleosomes” value was “did not inhibit”. Moreover, the “Competition … (acridine orange mP values)” value in the assay with salmon sperm DNA is reported as “negligible effect”.
Take `CC[n+]1c(-c2ccccc2)c2cc(N)ccc2c2ccc(N)cc21` [EtBr, ethidium bromide]: the “Competition … (acridine orange mP values)” value with salmon sperm DNA is given as “reduced acridine orange mP values”.
Turning to `COc1cccc2c1C(=O)c1c(O)c3c(c(O)c1C2=O)C[C@@](O)(C(C)=O)C[C@@H]3O[C@H]1C[C@H](N)[C@H](O)[C@H](C)O1` [daunorubicin], in assay [1], the “Scored positive for inhibition in HTS at ICCB-L/NSRB” value (shortened to “Scored positive for inhibition”) is recorded as “scored positive” and the “Identified as hit in pilot screen (Z score < −2 for both replicates)” value (“Identified as hit in pilot screen” below) is on record as “identified”. Further, the “DNA intercalation (competition with acridine orange)” value in the assay with salmon sperm DNA is recorded as “scored positive for DNA intercalation”.
`O=C1c2c(O)ccc(O)c2C(=O)c2c(NCCNCCO)ccc(NCCNCCO)c21` [MTX, mitoxantrone]: in assay [2], the “Inhibition of GST LANA1-23 binding to nucleosomes by ELISA” value is “inhibitory activity”. In addition, in assay [1], the IC50 is less than 25 µM, the “Scored positive for inhibition” value is reported as “scored positive” and the “Identified as hit in pilot screen” value was “identified”. Further, in the assay with salmon sperm DNA, the “Competition … (acridine orange mP values)” value is “reduced acridine orange mP values” and the “DNA intercalation (competition with acridine orange)” value is “scored positive for DNA intercalation”.
As to `CC[C@@]1(O)C(=O)OCc2c1cc1n(c2=O)Cc2cc3cc(O)ccc3nc2-1` [10-HCT, 10-hydroxycamptothecin], the “Confirmation of inhibitory activity by FP” value in assay [1] (pilot screen hits retested at increasing concentrations) was “could not be confirmed”. For the same molecule, the “Identified as hit in pilot screen” value in assay [1] is “identified”. For the same molecule, the “DNA intercalation (competition with acridine orange)” value in the assay with salmon sperm DNA is “inconsistently competed”.
Take `COc1cccc2c1C(=O)c1c(O)c3c(c(O)c1C2=O)C[C@@](O)(C(=O)CO)C[C@@H]3O[C@H]1C[C@H](N)[C@H](O)[C@H](C)O1` [doxorubicin]: in assay [2], the “Inhibition of GST LANA1-23 binding to nucleosomes by ELISA” value is “inhibitory activity”. In assay [1], the IC50 was less than 25 µM, the “Scored positive for inhibition” value was “scored positive” and the “Identified as hit in pilot screen” value is “identified”. The “DNA intercalation (competition with acridine orange)” value in the assay with salmon sperm DNA is listed as “scored positive for DNA intercalation”.

The term IC50 denotes the concentration that inhibits the measured activity by half. Read a low IC50 as inhibition by little substance.
